Source: article PMC9043997, “LEAP2 reduces postprandial glucose excursions and ad libitum food intake in healthy men” (Cell Reports Medicine, 2022)
Where a SMILES comes first, the peptide text is derived from it. Bridges are numbered along the chain shown (N, C = ends).

Legend:
Type in all cases: in vivo, human
healthy men [1] = experiment: Visual analog scale ratings of appetite-related sensations, crossover study; settings: healthy men n = 20, iv LEAP2 ~25 pmol/kg/min, 100 mm VAS, paired t test of AUC
Procedure: Sensations of hunger, satiety, prospective food consumption, fullness, nausea, comfort and thirst were rated on 100 mm VAS at timepoints −35, 0, 30, 75, 105, 135, 165, 195, 225 and 255 min and after the ad libitum meal.[34] After eating, participants evaluated the ad libitum meal by VAS with a score (median (interquartile range)) for appearance of 55 (36–72) mm, taste 65 (42–76) mm, off-notes 17 (7–31) mm, smell 63 (50–72) mm and overall impression 59 (45–73) mm indicating a moderate evaluation of the meal.

healthy men [2] = experiment: Plasma glucose and VAS ratings during the pharmacokinetic study
Procedure: Eight healthy men, recruited among participants in the placebo-controlled, crossover study, were included in an additional clinical study investigating the kinetic parameters of exogenous LEAP2. Each participant underwent a single experimental day with intravenous infusion of LEAP2 (10 min at a rate of ∼101 pmol/kg/min followed by 110 min at ∼25 pmol/kg/min) (see Figure S1B for an overview of the clinical study design). […] Fasting schedule for participants and all instructions from 48 h prior to the experimental day were similar to the placebo-controlled, crossover study. […] LEAP2 infusion was started at timepoint 0 min and discontinued after 120 min. Blood samples were drawn every 15 min from timepoint −30 to 270 min and, additionally, at timepoints 118, 122, 124, 127 and 130 min. Plasma glucose was measured bedside every 15 min from timepoint −30 to 180 min and every 30 min from timepoint 180 to 270 min with a mean concentration of 4.85 ± 0.02 mmol/L. For analytical procedures related to plasma glucose and LEAP2 concentrations, please see the section “Human plasma analyses”. Every 30 min from time −30 to 270 min, participants rated appetite-related sensations on 100 mm VAS[34] with a score (median (interquartile range)) for hunger of 72 (59–79) mm, prospective food consumption 73 (65–82) mm, satiety 22 (14–33) mm, fullness 21 (12–31) mm, comfort 78 (72–90) mm, thirst 78 (71–89) mm and nausea 3.0 (0–9.0).

healthy men [3] = experiment: Plasma growth hormone during LEAP2 infusion, crossover study; settings: mean ± SEM
Source text: The infusion was terminated when participants had finished eating.
For analysis of plasma glucose, blood was distributed in fluoride heparin-coated tubes, centrifuged immediately for 30 s (12,100 g, room temperature) and measured bedside by the glucose oxidase method (YSI 2900 Biochemistry Analyzer; YSI Incorporated, Yellow Springs, Ohio, USA). For analysis of LEAP2, blood was collected in chilled K3EDTA tubes each containing 250 KIU of aprotinin. For analysis of acyl ghrelin, blood was collected in chilled K2EDTA tubes added 20 μL pefabloc (100 mg/mL; Merck Millipore, Burlington, Massachusetts, USA). Subsequently, pefabloc-treated plasma was acidified with HCl (12.5 μL 2M HCl per 500 μL plasma; Merck Millipore, Burlington, Massachusetts, USA). For analysis of glucagon, blood was collected in K2EDTA tubes. For analysis of GH, insulin, C-peptide, free fatty acids, glycerol, triglycerides and acetaminophen (paracetamol), blood was collected in tubes with lithium and heparin. All tubes were immediately cooled on ice, centrifuged for 15 min (2,000 g, 4°C) and stored at −80°C until analysis. LEAP2 concentrations were determined by an in-house radioimmunoassay directed against the N-terminal part of LEAP2. LEAP-2 was used for standards, and the tracer was a peptide composed of the 12 N-terminal amino acids of LEAP2, with a ^125I-labelled tyrosine added to the C-terminal end. The precision and accuracy of the assay were evaluated based on European Medicines Agency's guidelines for bioanalytical assay validation. […] Due to supply chain disruptions from the COVID-19 pandemic, acyl ghrelin was only measured in plasma samples at timepoints 0, 60, 105, 165 and 255 min. […] Plasma GH was measured by Immunodiagnostic system-iSYS assay (IS-3700; IDS Limited, Boldon, UK). The assay is based on chemiluminesence technology and was performed according to the manufacturer’|'s instructions. […] For analysis of glucagon, plasma was extracted in a final concentration of 70% ethanol. Glucagon was measured using a C-terminal directed antiserum (code number 4305) measuring glucagon of pancreatic origin as previously described.[40] […] Plasma insulin and C-peptide were measured using a two-sided electrochemiluminescence immunoassay (Atellica IM Analyzer; Siemens Healthcare, Ballerup, Denmark). Plasma triglycerides and acetaminophen were analyzed by spectrophotometric methods following enzymatic hydrolysis and oxidation (Siemens Atellica CH 930; Siemens Healthcare, Ballerup, Denmark). Plasma concentrations of free fatty acids and glycerol were determined by enzymatic methods modified to run on a COBAS 6000 automatic analyzer (Roche, Rødovre, Denmark) using a NEFA-HR assay (Wako Chemicals, Neuss, Germany) and glycerol assay (Randox Laboratories, Crumlin, UK), respectively.
Unless otherwise stated, results are presented as mean ± SEM. Baseline values were calculated as a mean of timepoints −35, −10 and 0 min or, when only available −10 and 0 min. Baseline values for the postprandial period were calculated as a mean of timepoint 60 min. Calculations of AUC were based on the trapezoidal rule. AUC values are reported for the period 0 to 255 min. To assess the fasting and postprandial periods separately, AUC values are reported for the periods 0 to 60 min and 60 to 255 min, respectively. Student’s paired t test was used to test for differences in baseline, peak, time to peak, AUC and mean values and ad libitum food intake in men.

[4] = healthy fasting men n = 8, -30 to 270 min, median (interquartile range)
[5] = healthy men n = 20, iv LEAP2 ~25 pmol/kg/min, liquid mixed meal at 65 min

CC[C@H](C)[C@@H]1NC(=O)[C@@H]2CSSC[C@@H](C(=O)N[C@@H](CO)C(=O)N[C@@H](CC(C)C)C(=O)N[C@@H](CO)C(=O)N[C@H](C(=O)N[C@@H](C)C(=O)N[C@@H](CCC(N)=O)C(=O)N[C@@H](CCC(=O)O)C(=O)O)C(C)C)NC(=O)[C@H](CCCNC(=N)N)NC(=O)[C@H](CCCNC(=N)N)NC(=O)[C@H](CCCCN)NC(=O)[C@H](CCCNC(=N)N)NC(=O)[C@H](CSSC[C@H](NC(=O)[C@H](CO)NC(=O)[C@H](C)NC(=O)CNC(=O)[C@@H](NC(=O)[C@@H]3CCCN3C(=O)[C@H](CCCNC(=N)N)NC(=O)[C@H](CC(C)C)NC(=O)[C@H](CO)NC(=O)[C@@H](NC(=O)CNC(=O)[C@H](CCCNC(=N)N)NC(=O)[C@H](Cc3c[nH]c4ccccc34)NC(=O)[C@H](Cc3ccccc3)NC(=O)[C@@H]3CCCN3C(=O)[C@@H](NC(=O)[C@@H](N)CCSC)[C@@H](C)O)C(C)C)[C@@H](C)CC)C(=O)N[C@@H](CCCNC(=N)N)C(=O)N[C@@H](CC(=O)O)C(=O)N[C@@H](CC(=O)O)C(=O)N[C@@H](CO)C(=O)N[C@@H](CCC(=O)O)C(=O)N2)NC(=O)[C@H](CC(C)C)NC(=O)[C@H](CCCNC(=N)N)NC(=O)[C@H]([C@@H](C)O)NC1=O [LEAP2, liver-expressed antimicrobial peptide 2] (H-MTPFWRGVSLRPIGASCRDDSECITRLCRKRRCSLSVAQE-OH; disulfide 17-28, 23-33 (inferred); N-terminus and C-terminus assumed)
VAS ratings of hunger, satiety, prospective food consumption, fullness, nausea, comfort, or thirst, LEAP2 vs placebo (healthy men [1]): no differences | plasma glucose mean concentration during the pharmacokinetic study (healthy men [2]; healthy fasting men n = 8, -30 to 270 min, LEAP2 infusion 0 to 120 min): 4.85 ± 0.02 mmol/L | VAS comfort (healthy men [2]; [4]): 78 (72–90) mm | VAS fullness (healthy men [2]; [4]): 21 (12–31) mm | VAS prospective food consumption (healthy men [2]; [4]): 73 (65–82) mm | VAS satiety (healthy men [2]; [4]): 22 (14–33) mm | VAS thirst (healthy men [2]; [4]): 78 (71–89) mm | VAS hunger (healthy men [2]; healthy fasting men n = 8, every 30 min from -30 to 270 min, LEAP2 infusion 0 to 120 min, median (interquartile range)): 72 (59–79) mm | Growth hormone Baseline (healthy men [3]; healthy men n = 20, LEAP2 day, before infusion): 0.594 ± 0.300 ng/mL | Growth hormone AUC (healthy men [3]; healthy men n = 20, iv LEAP2 ~25 pmol/kg/min, 0 to 255 min): 33.8 ± 11.8 ng·min/mL | Growth hormone AUC0–60 min (healthy men [3]; healthy men n = 20, iv LEAP2 ~25 pmol/kg/min, fasting period): 20.2 ± 9.76 ng·min/mL | Growth hormone Nadir (healthy men [3]; [5]): 0.042 ± 0.004 ng/mL | Growth hormone Time to nadir (healthy men [3]; [5]): 116 ± 17.2 min | Growth hormone AUC60–255 min (healthy men [3]; healthy men n = 20, iv LEAP2 ~25 pmol/kg/min, postprandial period): 13.6 ± 2.32 ng·min/mL | Growth hormone Postprandial baseline (healthy men [3]; healthy men n = 20, iv LEAP2 ~25 pmol/kg/min, time = 60 min): 0.121 ± 0.048 ng/mL
